Results taken from ChEMBL document CHEMBL5252519, “Design strategies, structure activity relationship and mechanistic insights for purines as kinase inhibitors” (Eur J Med Chem, 2016).
Blank lines part the entries; values can stand above or below the compound they belong to.

Columns and labels:
[1] = target: T1, Phosphatidylinositol 4,5-bisphosphate 3-kinase catalytic subunit delta isoform (Homo sapiens, UniProt O00329); experiment: Inhibition of human PI3K-delta using PIP2 as substrate in presence of gamma[32P]ATP
T1 sequence (O00329 whole entry): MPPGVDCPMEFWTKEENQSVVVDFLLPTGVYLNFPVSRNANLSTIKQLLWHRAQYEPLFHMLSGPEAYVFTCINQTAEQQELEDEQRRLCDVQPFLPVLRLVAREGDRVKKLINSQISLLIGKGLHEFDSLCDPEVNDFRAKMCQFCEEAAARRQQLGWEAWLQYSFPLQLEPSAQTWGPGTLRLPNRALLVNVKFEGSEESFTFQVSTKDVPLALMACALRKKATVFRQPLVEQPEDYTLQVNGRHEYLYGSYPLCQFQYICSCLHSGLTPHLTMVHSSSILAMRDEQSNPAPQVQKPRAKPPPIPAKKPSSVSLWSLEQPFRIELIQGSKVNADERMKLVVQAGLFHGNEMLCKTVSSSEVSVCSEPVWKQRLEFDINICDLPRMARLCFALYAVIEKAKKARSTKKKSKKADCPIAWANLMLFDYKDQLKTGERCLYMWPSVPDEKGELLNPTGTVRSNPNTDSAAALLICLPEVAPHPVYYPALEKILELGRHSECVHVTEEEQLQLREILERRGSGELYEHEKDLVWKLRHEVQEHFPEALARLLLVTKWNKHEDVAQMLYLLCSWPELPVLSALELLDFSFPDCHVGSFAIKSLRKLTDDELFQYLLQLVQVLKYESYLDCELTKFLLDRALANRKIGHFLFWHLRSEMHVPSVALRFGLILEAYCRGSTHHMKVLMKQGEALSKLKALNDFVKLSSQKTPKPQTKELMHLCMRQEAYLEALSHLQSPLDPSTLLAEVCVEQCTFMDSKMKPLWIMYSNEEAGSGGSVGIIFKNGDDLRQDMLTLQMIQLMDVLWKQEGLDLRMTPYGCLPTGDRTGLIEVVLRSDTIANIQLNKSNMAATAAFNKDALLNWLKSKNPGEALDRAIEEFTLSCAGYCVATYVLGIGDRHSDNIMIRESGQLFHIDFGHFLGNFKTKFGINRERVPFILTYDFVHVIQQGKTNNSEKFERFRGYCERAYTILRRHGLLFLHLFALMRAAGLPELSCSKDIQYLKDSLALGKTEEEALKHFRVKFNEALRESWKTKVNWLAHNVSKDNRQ

[2] = target: Cyclin-dependent kinase 2/cyclin A (Homo sapiens, UniProt P24941); experiment: Inhibition of human CDK2/cyclinA using histone H1 as substrate incubated for 30 mins in presence of gamma[32P]ATP by phosphoimaging analysis; type: protein-complex assay
[3] = target: Tyrosine-protein kinase SYK (Homo sapiens, UniProt P43405); experiment: Inhibition of SYK (unknown origin) using biotinylated EDPDYEWPSA as substrate incubated for 30 mins in presence of 33P-ATP by Scintillation Proximity Assay
Janus Kinase (JAK) = Janus Kinase (JAK) (Homo sapiens, UniProt P52333+P23458+O60674+P29597); experiment: Inhibition of JAK (unknown origin); type: protein assay
[4] = target: Cyclin-dependent kinase 2/cyclin E (Homo sapiens, UniProt P24941); experiment: Inhibition of CDK2/Cyclin E (unknown origin) using histone as substrate incubated for 30 mins in presence of gamma[33P]ATP by digital imaging analysis; type: protein-complex assay
CDK9/Cyclin T = CDK9/Cyclin T (Homo sapiens, UniProt P50750); experiment: Inhibition of CDK9/Cyclin T (unknown origin) using (YSPTSPS)3 peptide as substrate incubated for 30 mins in presence of gamma[33P]ATP by digital imaging analysis; type: protein-complex assay
Chain of CDK9/Cyclin T (O60563 whole entry): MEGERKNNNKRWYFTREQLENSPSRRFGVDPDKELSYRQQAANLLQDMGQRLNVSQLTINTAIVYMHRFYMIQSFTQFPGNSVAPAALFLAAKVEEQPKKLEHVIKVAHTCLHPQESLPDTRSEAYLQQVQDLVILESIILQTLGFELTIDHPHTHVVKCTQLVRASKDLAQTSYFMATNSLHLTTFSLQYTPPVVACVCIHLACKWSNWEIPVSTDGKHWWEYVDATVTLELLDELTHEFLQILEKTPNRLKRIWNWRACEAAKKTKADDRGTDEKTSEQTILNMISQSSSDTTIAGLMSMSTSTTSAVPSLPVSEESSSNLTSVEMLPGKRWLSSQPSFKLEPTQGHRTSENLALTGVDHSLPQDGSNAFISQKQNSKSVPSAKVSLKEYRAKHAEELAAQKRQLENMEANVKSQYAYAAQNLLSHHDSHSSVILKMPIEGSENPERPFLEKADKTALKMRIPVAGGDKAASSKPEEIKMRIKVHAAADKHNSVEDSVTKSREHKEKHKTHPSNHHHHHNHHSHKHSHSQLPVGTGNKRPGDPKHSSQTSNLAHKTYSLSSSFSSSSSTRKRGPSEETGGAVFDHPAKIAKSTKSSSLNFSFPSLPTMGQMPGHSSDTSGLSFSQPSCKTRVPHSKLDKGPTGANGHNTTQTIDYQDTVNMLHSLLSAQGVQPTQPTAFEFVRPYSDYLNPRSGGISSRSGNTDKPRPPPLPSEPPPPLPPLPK
Chain of CDK9/Cyclin T (P50750 whole entry): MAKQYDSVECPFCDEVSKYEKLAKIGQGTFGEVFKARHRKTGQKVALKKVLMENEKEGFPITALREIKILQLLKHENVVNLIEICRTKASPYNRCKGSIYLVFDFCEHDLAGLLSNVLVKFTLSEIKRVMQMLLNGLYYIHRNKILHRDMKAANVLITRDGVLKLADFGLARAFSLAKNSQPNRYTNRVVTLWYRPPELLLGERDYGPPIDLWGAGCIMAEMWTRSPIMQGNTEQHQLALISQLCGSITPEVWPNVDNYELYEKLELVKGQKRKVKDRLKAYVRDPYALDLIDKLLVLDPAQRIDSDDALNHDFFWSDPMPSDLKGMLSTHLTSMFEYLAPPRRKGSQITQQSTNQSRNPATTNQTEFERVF
Chain of CDK9/Cyclin T (O60583 whole entry, further chain): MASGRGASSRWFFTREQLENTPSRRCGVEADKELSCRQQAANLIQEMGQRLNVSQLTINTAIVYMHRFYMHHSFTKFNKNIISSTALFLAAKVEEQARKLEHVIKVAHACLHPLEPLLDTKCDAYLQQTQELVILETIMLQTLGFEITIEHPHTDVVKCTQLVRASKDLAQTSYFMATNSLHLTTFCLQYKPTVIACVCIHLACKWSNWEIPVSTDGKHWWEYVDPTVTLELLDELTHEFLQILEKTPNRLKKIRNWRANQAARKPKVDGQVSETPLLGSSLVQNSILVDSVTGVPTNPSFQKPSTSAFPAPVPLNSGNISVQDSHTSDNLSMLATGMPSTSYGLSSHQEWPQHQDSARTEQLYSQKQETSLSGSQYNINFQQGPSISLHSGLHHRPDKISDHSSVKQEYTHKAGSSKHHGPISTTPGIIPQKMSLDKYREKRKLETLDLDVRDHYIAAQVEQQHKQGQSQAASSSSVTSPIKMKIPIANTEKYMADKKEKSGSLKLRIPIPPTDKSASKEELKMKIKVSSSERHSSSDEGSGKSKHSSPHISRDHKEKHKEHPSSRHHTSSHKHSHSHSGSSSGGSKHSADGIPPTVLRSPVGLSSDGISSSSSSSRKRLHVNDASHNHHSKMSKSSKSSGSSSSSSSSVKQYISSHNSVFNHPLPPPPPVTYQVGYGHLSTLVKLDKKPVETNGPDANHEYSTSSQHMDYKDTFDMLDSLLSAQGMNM

MCF7 = experiment: Cytotoxicity against human MCF7 cells incubated for 48 hrs by SRB assay; type: functional, cell-based; settings: MCF7, 48 h
[5] = Antiproliferative activity against HUVEC cells assessed as cell growth inhibition measured after 72 hrs by crystal violet staining based analysis; type: toxicity; settings: human
[6] = target: T1, Phosphatidylinositol 4,5-bisphosphate 3-kinase catalytic subunit delta isoform; experiment: Inhibition of PI3K-delta (unknown origin)
[7] = target: Phosphatidylinositol 4,5-bisphosphate 3-kinase catalytic subunit alpha isoform (Homo sapiens, UniProt P42336); experiment: Inhibition of PI3K-p110alpha (unknown origin) incubated for 30 mins by fluorescence polarization assay
Chain of Phosphatidylinositol 4,5-bisphosphate 3-kinase catalytic subunit alpha isoform (P42336 whole entry, canonical isoform): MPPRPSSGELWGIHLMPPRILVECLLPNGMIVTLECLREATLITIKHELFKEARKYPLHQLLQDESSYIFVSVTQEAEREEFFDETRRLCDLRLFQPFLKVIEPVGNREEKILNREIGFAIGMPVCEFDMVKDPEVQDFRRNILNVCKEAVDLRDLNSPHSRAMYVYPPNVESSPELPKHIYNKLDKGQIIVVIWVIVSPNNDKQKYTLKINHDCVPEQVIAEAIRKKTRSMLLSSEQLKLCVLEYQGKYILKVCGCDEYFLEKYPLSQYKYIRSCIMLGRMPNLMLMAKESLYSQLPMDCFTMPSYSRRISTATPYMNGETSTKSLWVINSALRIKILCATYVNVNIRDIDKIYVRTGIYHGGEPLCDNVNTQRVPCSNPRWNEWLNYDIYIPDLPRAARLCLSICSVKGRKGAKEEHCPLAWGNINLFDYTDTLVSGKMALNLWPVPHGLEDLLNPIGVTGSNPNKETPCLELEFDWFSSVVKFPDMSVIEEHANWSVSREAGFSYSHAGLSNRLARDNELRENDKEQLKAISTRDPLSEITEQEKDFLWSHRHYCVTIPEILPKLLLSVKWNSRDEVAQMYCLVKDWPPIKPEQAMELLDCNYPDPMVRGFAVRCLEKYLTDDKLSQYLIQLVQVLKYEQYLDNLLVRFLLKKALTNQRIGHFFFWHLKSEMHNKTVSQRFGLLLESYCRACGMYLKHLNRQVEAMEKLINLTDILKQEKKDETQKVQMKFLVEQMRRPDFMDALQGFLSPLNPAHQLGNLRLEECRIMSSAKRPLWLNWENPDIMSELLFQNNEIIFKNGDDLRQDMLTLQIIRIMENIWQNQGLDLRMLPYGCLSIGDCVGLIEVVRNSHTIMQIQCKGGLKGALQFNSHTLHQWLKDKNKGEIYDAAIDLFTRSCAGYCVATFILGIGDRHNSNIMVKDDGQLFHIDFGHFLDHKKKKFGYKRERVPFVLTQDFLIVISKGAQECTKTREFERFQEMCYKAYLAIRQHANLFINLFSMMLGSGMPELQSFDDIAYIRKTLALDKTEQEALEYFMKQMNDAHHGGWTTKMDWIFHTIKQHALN

HMEC = experiment: Inhibition of cell migration in HMECs at 10 uM measured after 16 hrs by fluorescence based assay; type: functional; settings: Homo sapiens
[8] = target: Serine/threonine-protein kinase mTOR (Homo sapiens, UniProt P42345); experiment: Inhibition of mTOR (unknown origin)

IC50 [2]: < 50 nM
Compound: CC(C)[C@H](CO)Nc1nc(Nc2ccc(Cl)c(C(=O)O)c2)c2ncn(C(C)C)c2n1

IC50 [3]: 5 nM
Compound: CC(C)(C)Nc1nc(Nc2ccc(CC(=O)O)cc2)nc2[nH]cnc12

IC50 (Janus Kinase (JAK)): < 1 nM
Compound: COc1cc(Nc2nc(NC3C4C=CC(C4)C3C(N)=O)c3nc[nH]c3n2)cc(OC)c1OC (centres undefined)

IC50 [4]: 20 nM
IC50 (CDK9/Cyclin T): 9 nM
Compound: COc1cccc(CNc2nc(NC3CCC(N)CC3)nc3c2ncn3C(C)C)c1O (centres undefined)

IC50 (Janus Kinase (JAK)): < 1 nM
Compound: NC(=O)C1C2C=CC(C2)C1Nc1nc(Nc2cccc(S(N)(=O)=O)c2)nc2[nH]cnc12 (centres undefined)

IC50 (Janus Kinase (JAK)): < 1 nM
Compound: NC(=O)[C@@H]1[C@H](Nc2nc(Nc3cccc(S(N)(=O)=O)c3)nc3[nH]cnc23)[C@H]2C=C[C@@H]1C2

IC50 [1]: 45 nM
Compound: CC[C@H](Nc1ncnc2[nH]cnc12)c1nc2cccc(Cl)c2c(=O)n1-c1cc(F)cc(F)c1

IC50 [6]: < 30 nM
Compound: CS(=O)(=O)N1CCN(CCn2cnc3c(-n4c(C(F)F)nc5ccccc54)nc(N4CCOCC4)nc32)CC1

IC50 [1]: 12 nM
Compound: CCC(Nc1ncnc2[nH]cnc12)c1nc2cccc(C)c2c(=O)n1-c1cc(F)cc(F)c1 (centres undefined)

IC50 [3]: 5 nM
Compound: C/C=N/Nc1ccc(Nc2nc(NCC)c3nc[nH]c3n2)cc1

IC50 (Janus Kinase (JAK)): < 1 nM
Compound: CC(C)Oc1cccc(Nc2nc(NC3C4C=CC(C4)C3C(N)=O)c3nc[nH]c3n2)c1 (centres undefined)

IC50 [8]: 2.4 nM
Compound: O=C(Nc1ccc(-c2nc(C3=CCOCC3)c3cnn(CC(F)(F)F)c3n2)cc1)Nc1cccnc1

IC50 (CDK9/Cyclin T): 7 nM
Compound: COc1cccc(CNc2nc(NC3CCCCC3N)nc3c2ncn3C(C)C)c1O (centres undefined)

IC50 (Janus Kinase (JAK)): < 1 nM
Compound: c1nc2c(NC3CC4CCC3C4)nc(Nc3ccc(N4CCCCC4)cc3)nc2[nH]1 (centres undefined)

IC50 [3]: 5 nM
Compound: CC(C)Nc1nc(Nc2ccc(S(=O)(=O)N(C)C)cc2)nc2[nH]cnc12

The remaining lines, values behind:

Compound: CCC(Nc1ncnc2[nH]cnc12)c1nc2cccc(Cl)c2c(=O)n1-c1c(F)cccc1F (centres undefined)
IC50 [1]: 26 nM

Compound: Cc1nn(-c2ccccc2)c2ncnc(Nc3ccc(C(=O)N4CCOCC4)cc3)c12
IC50 (MCF7): 14900 nM

Compound: CC(=O)N1N=C(c2ccc(Nc3ncnc4c3c(C)nn4-c3ccccc3)cc2)CC1c1ccc(Cl)cc1 (centres undefined)
IC50 (MCF7): 14900 nM

Compound: CC[C@@H](CO)Nc1nc(NCc2ccccc2O)c2ncn(C(C)C)c2n1
EC50 at 72 h [5]: 1590 nM

Compound: OCCn1cnc2c(-c3cn[nH]c3)nc(N3CCOCC3)nc21
IC50 [6]: < 30 nM

Compound: CC(C)n1cnc2c(NCc3cc(F)ccc3O)nc(NC3CCC(N)CC3)nc21 (centres undefined)
IC50 [4]: 20 nM
IC50 (CDK9/Cyclin T): 8 nM

Compound: CC(C)[C@H](CO)Nc1nc(Nc2ccc(Cl)c(N)c2)c2ncn(C(C)C)c2n1
IC50 [2]: < 50 nM

Compound: CCC(CO)Nc1nc(NCc2cc(C)ccc2O)c2ncn(C(C)C)c2n1 (centres undefined)
IC50 (CDK9/Cyclin T): 6 nM

Compound: CC(C)[C@H](CO)Nc1nc(Nc2cccc(Cl)c2)c2ncn(C(C)C)c2n1 [PURVALANOLA]
IC50 [2]: < 50 nM

Compound: CC(C)C(CO)Nc1nc(Nc2cccc(Cl)c2)c2ncn(C(C)C)c2n1 (centres undefined)
IC50 [2]: < 50 nM

Compound: CC(C)(C)c1nc2c(N3CCOCC3)nc(-c3cccc4[nH]ccc34)nc2n1CCO
IC50 [7]: < 10 nM

Compound: CC[C@H](CO)Nc1nc(NCc2cccc(OC)c2O)c2ncn(C(C)C)c2n1
inhibition at 10 µM (HMEC): 54%
EC50 at 72 h [5]: 7120 nM

Compound: CC[C@@H](CO)Nc1nc(NCc2cccc(OC)c2O)c2ncn(C(C)C)c2n1
inhibition at 10 µM (HMEC): 14%
EC50 at 72 h [5]: 2850 nM

Compound: Cc1nn(-c2ccccc2)c2ncn(N)c(=O)c12
IC50 (MCF7): 89200 nM

Compound: Cc1nc(N)ncc1-c1nc(N2CCOCC2)c2nc(C(C)(C)C)n(CCO)c2n1
IC50 [7]: < 10 nM
